# Data reported in article PMC5813016 (Nature Communications, 2018).
# “And” between values parts separate entries of the source, which are not always exact repeats. Equal entries are not always repeated. “Also recorded” adds a separate entry of the source.
# Legend:
# [1] = Plasma concentrations in monkey EBR study; format: in vivo, cynomolgus monkey; details: mean ± SD
# Procedure: For both compounds, blood collections occurred on day 1, day 2, and day 3. All blood samples were placed on wet ice until centrifugation. Following centrifugation, the plasma was transferred to polypropylene tubes and stored frozen at –20 °C to –80 °C until analysis.
# [2] = Equilibrium dialysis, unbound fraction in monkey plasma; format: in vitro ADME; details: read-out: unbound fraction in monkey plasma (fu,p)
# [3] = Equilibrium dialysis, unbound fraction in rat brain homogenate; format: in vitro ADME; details: read-out: unbound fraction in rat brain homogenate (fu,b)
# [4] = test system: rats with unilateral 6-OHDA lesions; experiment: Rat unilateral 6-OHDA lesion model, contralateral rotations; format: in vivo, Sprague-Dawley rat; details: for contralateral rotational behavior on repeated dosing: 6-OHDA lesioned rats, six doses every 12 h, A-77636 0.32 mg/kg s.c., PF-2334 10.78 mg/kg oral; for pairwise contrast of rotational speed, estimate: 6-OHDA rats
# Procedure: Sprague-Dawley rats with 6-OHDA lesions were obtained from Taconic (Rensselaer, NY). For the lesion surgery rats (~175 g) were anesthetized with isoflurane and given desipramine to protect noradrenergic neurons (10 mg/kg). The medial forebrain was targeted using AP:−4.3 mm; ML:−1.2 mm; DV:8.3 mm using a 30 G cannula. […] The cannula was left in place post-infusion for 5 min. To assess the extent of the lesion animals were given an apomorphine (0.05 mg/kg S.C.) challenge 21 day after the lesion surgery. Matched sham lesioned animals from the same source received exactly the same procedures except saline was infused into the brain. Only animals with more than 180 contralateral rotations over 30 min or more than 30 rotations in multiple 5 min intervals were used for the study. Experiments began 12 weeks after lesion.
# Rats with sham (n = 20) and unilateral 6-OHDA lesions (n = 17) were obtained and four weeks after lesion used for the study. […] Animals followed a normal light cycle (6:00 AM lights on and 6:00 PM lights off). Animals were provided with food and water ad libitum in the chambers. Activity was monitored with infrared ceiling cameras (Y-cam, London, UK) and rotational behavior was quantified by automated movie analysis via validated custom software. Animals were acclimated and recorded for 2 h to the test chambers prior to the first dose.
# Rotational behavior was detected using custom software written in Python language, version 2.7. OpenCV library, version 2.10 was used for video analyses[73],[74]. R software, version 3.1.0, was used for statistical analyses. Rotational behavior is described as the average number of rotations per minute (RPM) during the 6 h period immediately following each dose. To quantify changes within each treatment group as well as differences between treatments over time we used a longitudinal mixed model two-way ANOVA[75] with time, treatment, and their interaction as fixed factors and animal as a random factor. Least-squares means for specified factors were estimated using lsmeans library. Post-hoc comparisons to reference time point were adjusted for multiple hypothesis testing via Dunnett′s method. All statistical tests were performed two-tailed at a 5% level of significance.
# human D1R W318A mutant = experiment: cAMP assay, D1R mutant W318A; details: relative to wild-type D1R; each table line is one experiment (Experiment # 1-6)
# human D1R S188I mutant = experiment: cAMP assay, D1R mutant S188I; details: relative to wild-type D1R; each table line is one experiment (Experiment # 1-6)
# human D1R F288A mutant = experiment: cAMP assay, D1R mutant F288A; details: relative to wild-type D1R; each table line is one experiment (Experiment # 1-6)
# human D1R N292A mutant = experiment: cAMP assay, D1R mutant N292A; details: relative to wild-type D1R; each table line is one experiment (Experiment # 1-6)
# human D1R S107A mutant = experiment: cAMP assay, D1R mutant S107A; details: relative to wild-type D1R; each table line is one experiment (Experiment # 1-6)
# human D1R N334A mutant = experiment: cAMP assay, D1R mutant N334A; details: relative to wild-type D1R; each table line is one experiment (Experiment # 1-6)
# human D1R K81R mutant = experiment: cAMP assay, D1R mutant K81R; details: relative to wild-type D1R; each table line is one experiment (Experiment # 1-6)
# human D1R T273A mutant = experiment: cAMP assay, D1R mutant T273A; details: relative to wild-type D1R; each table line is one experiment (Experiment # 1-6)
# human D1R T59A mutant = experiment: cAMP assay, D1R mutant T59A; details: relative to wild-type D1R; each table line is one experiment (Experiment # 1-6)
# human D1R V270A mutant = experiment: cAMP assay, D1R mutant V270A; details: relative to wild-type D1R; each table line is one experiment (Experiment # 1-6)
# [5] = 0.9 mg/kg/day split oral dose, Day 1, 5 h post-dose
# [6] = 0.9 mg/kg/day split oral dose, Day 2, 1 h post-dose
# [7] = 0.9 mg/kg/day split oral dose, Day 2, 5 h post-dose
# [8] = 0.9 mg/kg/day split oral dose, Day 3, 1 h post-dose
# [9] = 0.9 mg/kg/day split oral dose, Day 3, 5 h post-dose
# [10] = 1 mg/kg/day subcutaneous dose, Day 1, 1 h post-dose
# [11] = 1 mg/kg/day subcutaneous dose, Day 1, 6 h post-dose
# [12] = 1 mg/kg/day subcutaneous dose, Day 2, 1 h post-dose
# [13] = 1 mg/kg/day subcutaneous dose, Day 2, 6 h post-dose
# [14] = 1 mg/kg/day subcutaneous dose, Day 3, 1 h post-dose
# [15] = 1 mg/kg/day subcutaneous dose, Day 3, 6 h post-dose
structure (smiles),measurement,setting,value
Cc1n[nH]c(=O)c(C)c1-c1ccc(Oc2nccc3occc23)cc1F [PF-2334],Cp (total plasma concentration),"[1]; 0.9 mg/kg/day split oral dose (0.6 + 0.3 mg/kg 8 h later), Day 1, 1 h post-dose",41.9 ± 9.4 ng/mL
same,"Cp,u (unbound plasma concentration)","[1]; 0.9 mg/kg/day split oral dose, Day 1, 1 h post-dose",4.8 ± 1.1 nM
same,Cp (total plasma concentration),[1]; [5],47.0 ± 13.9 ng/mL
same,"Cp,u (unbound plasma concentration)",[1]; [5],5.4 ± 1.6 nM
same,Cp (total plasma concentration),[1]; [6],71.4 ± 20.1 ng/mL
same,"Cp,u (unbound plasma concentration)",[1]; [6],8.1 ± 2.3 nM
same,Cp (total plasma concentration),[1]; [7],99.0 ± 36.3 ng/mL
same,"Cp,u (unbound plasma concentration)",[1]; [7],11.3 ± 4.1 nM
same,Cp (total plasma concentration),[1]; [8],89.5 ± 49.4 ng/mL
same,"Cp,u (unbound plasma concentration)",[1]; [8],10.2 ± 5.6 nM
same,Cp (total plasma concentration),[1]; [9],106 ± 40 ng/mL
same,"Cp,u (unbound plasma concentration)",[1]; [9],12.1 ± 4.5 nM
same,fraction unbound,[2],0.04
same,fraction unbound,[3],0.021
same,contralateral rotational behavior on repeated dosing,[4],significantly greater rotational behavior than A-77636 treated animals; also recorded: still displaying contralateral rotational behavior following the 6th dose
same,"pairwise contrast of rotational speed, estimate","[4]; PF-2334 10.78 mg/kg p.o. every 12 h, contrast (time range, hours) 24 - 36, least-squares means",0.4016
same,"pairwise contrast of rotational speed, estimate","[4]; PF-2334, contrast (hours) 24 - 48",0.3322
same,"pairwise contrast of rotational speed, estimate","[4]; PF-2334, contrast (hours) 24 - 60",0.371
same,"pairwise contrast of rotational speed, estimate","[4]; PF-2334, contrast (hours) 24 - 72 (72 h = quinpirole dose)",1.093
same,"pairwise contrast of rotational speed, estimate","[4]; PF-2334, contrast (hours) 36 - 48",-0.06943
same,"pairwise contrast of rotational speed, estimate","[4]; PF-2334, contrast (hours) 36 - 60",-0.03066
same,"pairwise contrast of rotational speed, estimate","[4]; PF-2334, contrast (hours) 36 - 72 (72 h = quinpirole dose)",0.6914
same,"pairwise contrast of rotational speed, estimate","[4]; PF-2334, contrast (hours) 48 - 60",0.03877
same,"pairwise contrast of rotational speed, estimate","[4]; PF-2334, contrast (hours) 48 - 72 (72 h = quinpirole dose)",0.7609
same,"pairwise contrast of rotational speed, estimate","[4]; PF-2334, contrast (hours) 60 - 72 (72 h = quinpirole dose)",0.7221
Cc1cc(Oc2nccc3occc23)ccc1-c1c(C)ncnc1C [PF-8871],"fold shift of cAMP functional potency, W318A (EC50 mutant/ EC50 WT)",human D1R W318A mutant,12.5
same,"fold shift of cAMP functional potency, S188I (EC50 mutant/ EC50 WT)",human D1R S188I mutant,5.8 and 10.8 and 8.7
same,"fold shift of cAMP functional potency, F288A (EC50 mutant/ EC50 WT)",human D1R F288A mutant,146.3
same,"fold shift of cAMP functional potency, N292A (EC50 mutant/ EC50 WT)",human D1R N292A mutant,30.7
Cc1cc(Oc2nccc3occc23)ccc1-c1c(C)ncc2nccn12 [PF-6142],"fold shift of cAMP functional potency, S107A (EC50 mutant/ EC50 WT)",human D1R S107A mutant,2.3
same,"fold shift of cAMP functional potency, N334A (EC50 mutant/ EC50 WT)",human D1R N334A mutant,1.3
same,"fold shift of cAMP functional potency, K81R (EC50 mutant/ EC50 WT)",human D1R K81R mutant,2.7
same,"fold shift of cAMP functional potency, W318A (EC50 mutant/ EC50 WT)",human D1R W318A mutant,16.3 and 20.4
same,"fold shift of cAMP functional potency, T273A (EC50 mutant/ EC50 WT)",human D1R T273A mutant,0.2
same,"fold shift of cAMP functional potency, S188I (EC50 mutant/ EC50 WT)",human D1R S188I mutant,10.6 and 8.5 and 10.1 and 6.7
same,"fold shift of cAMP functional potency, T59A (EC50 mutant/ EC50 WT)",human D1R T59A mutant,1.0
same,"fold shift of cAMP functional potency, F288A (EC50 mutant/ EC50 WT)",human D1R F288A mutant,141.2 and 88.7
same,"fold shift of cAMP functional potency, N292A (EC50 mutant/ EC50 WT)",human D1R N292A mutant,23.7 and 30.6
same,"fold shift of cAMP functional potency, V270A (EC50 mutant/ EC50 WT)",human D1R V270A mutant,1.7
"NC[C@@H]1O[C@H](C23CC4CC(CC(C4)C2)C3)Cc2c1ccc(O)c2O [A-77636, reference compound]",Cp (total plasma concentration),[1]; [10],79.3 ± 11.4 ng/mL
same,"Cp,u (unbound plasma concentration)",[1]; [10],10.6 ± 1.5 nM
same,Cp (total plasma concentration),[1]; [11],34.8 ± 3.5 ng/mL
same,"Cp,u (unbound plasma concentration)",[1]; [11],4.6 ± 0.5 nM
same,Cp (total plasma concentration),[1]; [12],73.1 ± 13.8 ng/mL
same,"Cp,u (unbound plasma concentration)",[1]; [12],9.8 ± 1.8 nM
same,Cp (total plasma concentration),[1]; [13],46.3 ± 11.7 ng/mL
same,"Cp,u (unbound plasma concentration)",[1]; [13],6.2 ± 1.6 nM
same,Cp (total plasma concentration),[1]; [14],85.5 ± 19.0 ng/mL
same,"Cp,u (unbound plasma concentration)",[1]; [14],11.4 ± 2.5 nM
same,Cp (total plasma concentration),[1]; [15],40.6 ± 2.8 ng/mL
same,"Cp,u (unbound plasma concentration)",[1]; [15],5.4 ± 0.4 nM
same,fraction unbound,[2],0.044
same,fraction unbound,[3],0.0012
same,contralateral rotational behavior on repeated dosing,[4],essentially zero contralateral rotational behavior
Cc1cc(Oc2cccc(O)c2O)ccc1-c1c(C)ncnc1C [PF-1437],"fold shift of cAMP functional potency, S107A (EC50 mutant/ EC50 WT)",human D1R S107A mutant,1.2
same,"fold shift of cAMP functional potency, N334A (EC50 mutant/ EC50 WT)",human D1R N334A mutant,1.2
same,"fold shift of cAMP functional potency, K81R (EC50 mutant/ EC50 WT)",human D1R K81R mutant,0.4
same,"fold shift of cAMP functional potency, T273A (EC50 mutant/ EC50 WT)",human D1R T273A mutant,0.1
same,"fold shift of cAMP functional potency, T59A (EC50 mutant/ EC50 WT)",human D1R T59A mutant,0.2
same,"fold shift of cAMP functional potency, V270A (EC50 mutant/ EC50 WT)",human D1R V270A mutant,0.6
